Results reported in patent US6710052B2, “Pyrimidine compounds” (AstraZeneca, priority 2000, dated 2004).

Legend:
[1] = target: T1, human Focal Adhesion Kinase (FAK) (Homo sapiens, UniProt Q05397); assay: FAK3 Kinase Inhibition Assay; type: biochemical; conditions: in vitro enzyme assay; read-out: FAK inhibitory activity IC50
T1 construct: FAK (full length human cDNA described by Andre et al); made in house; host or cells: Sf21 insect cells, recombinant baculovirus (pFastbac 1)
Description: FAK3 Kinase Inhibition Assay
This assay determines the ability of a test compound to inhibit tyrosine kinase activity of human Focal Adhesion Kinase (FAK).
DNA encoding FAK is obtained by total gene synthesis (Edwards M, International Biotechnology Lab 5(3), 19-25, 1987) or by cloning. These are then expressed in a suitable expression system to obtain polypeptide with tyrosine kinase activity.
Active FAK protein has been previously expressed in a baculovirus system using a similar N-terminal 6-histidine tag (Protein Expression And Purification, 1996, 7: 12-18). The human FAK cDNA was cloned into the baculovirus transplacement vector, pFastbac 1 (Life Technologies), and the recombinant construct was co-transfected into insect cells (for example Spodoptera frugiperda 21(Sf21)) with viral DNA to prepare recombinant baculovirus (details of the methods for the assembly of recombinant DNA molecules and the preparation and use of recombinant baculovirus can be found in standard texts for example Sambrook et al, 1989, Molecular cloning—A Laboratory Manual, 2nd edition, Cold Spring Harbour Laboratory Press and O'Reilly et al, 1992, Baculovirus Expression Vectors—A Laboratory Manual, W. H. Freeman and Co, New York. Details specific to the use of the pFastbac (‘Bac to Bac’) system are provided in Anderson et al., 1995, FOCUS (Life Technologies Bulletin Magazine), 17, p53.) […]

[2] = target: T2, CDK4/Cyclin D1 (Homo sapiens, UniProt P11802); assay: CDK4 Inhibition Assay (Scintillation Proximity Assay, GST-Retinoblastoma substrate); type: biochemical; conditions: in vitro kinase assay; read-out: CDK4 inhibitory activity IC50
T2 construct: made in house; host or cells: Sf21 insect cells, baculovirus co-infection (pVL1393); the GST-Rb substrate was made in E. coli BL21 (DE3) pLysS
Procedure: The compounds were tested in an in vitro kinase assay in 96 well format using Scintillation Proximity Assay (SPA—obtained from Amersham) for measuring incorporation of [γ-33-P]-Adenosine Triphosphate into a test substrate (GST-Retinoblastoma). In each well was placed the compound to be tested (diluted in DMSO and water to correct concentrations) and in control wells either p 16 as an inhibitor control or DMSO as a positive control.
Approximately 0.51 μl of CDK4/Cyclin D1 partially-purified enzyme (amount dependent on enzyme activity) diluted in 25 μl incubation buffer was added to each well then 20 μl of GST-Rb/ATP/ATP33 mixture (containing 0.5 μg GST-Rb and 0.2 μM ATP and 0.14 μCi [γ-33-P]-Adenosine Triphosphate), and the resulting mixture shaken gently, then incubated at room temperature for 60 minutes. […]
The plates were sealed with Topseal-S plate sealers, left for two hours then spun at 2500 rpm, 1124× g., for 5 minutes. The plates were read on a Topcount for 30 seconds per well. […]
E. coli paste was resuspended in 10 ml/g of NETN buffer (50 mM Tris pH 7.5, 120 mM NaCl, 1 mM EDTA, 0.5%v/v NP-40, 1 mM PMSF, 1 ug/ml leupeptin, 1 ug/ml aprotinin and 1 ug/ml pepstatin) and sonicated for 2×45 seconds per 100 ml homogenate. […] The final product was analysed by Sodium Dodeca Sulfate (SDS) PAGE (Polyacrylamide gel) using 8-16% Tris-Glycine gels (Novex, San Diego, USA). […]

T2 sequence (P11802 whole entry): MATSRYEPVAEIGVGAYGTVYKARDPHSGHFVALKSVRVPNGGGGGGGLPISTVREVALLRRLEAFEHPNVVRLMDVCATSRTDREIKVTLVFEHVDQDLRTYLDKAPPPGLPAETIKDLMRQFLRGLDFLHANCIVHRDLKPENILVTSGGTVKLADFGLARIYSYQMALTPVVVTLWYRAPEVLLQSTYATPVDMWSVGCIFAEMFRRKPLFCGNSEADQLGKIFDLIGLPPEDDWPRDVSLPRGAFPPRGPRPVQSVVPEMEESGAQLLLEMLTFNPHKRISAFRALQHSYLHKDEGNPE
T2 sequence (P24385 whole entry partner): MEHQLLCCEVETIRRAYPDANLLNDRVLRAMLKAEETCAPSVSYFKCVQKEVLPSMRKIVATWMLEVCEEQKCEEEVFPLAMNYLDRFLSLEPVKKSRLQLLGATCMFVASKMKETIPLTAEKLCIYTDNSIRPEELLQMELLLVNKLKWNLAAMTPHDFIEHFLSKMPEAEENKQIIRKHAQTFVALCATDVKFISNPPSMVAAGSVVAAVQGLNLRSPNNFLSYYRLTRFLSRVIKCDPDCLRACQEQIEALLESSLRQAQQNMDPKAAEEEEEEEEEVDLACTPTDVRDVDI
T1 sequence (Q05397 whole entry): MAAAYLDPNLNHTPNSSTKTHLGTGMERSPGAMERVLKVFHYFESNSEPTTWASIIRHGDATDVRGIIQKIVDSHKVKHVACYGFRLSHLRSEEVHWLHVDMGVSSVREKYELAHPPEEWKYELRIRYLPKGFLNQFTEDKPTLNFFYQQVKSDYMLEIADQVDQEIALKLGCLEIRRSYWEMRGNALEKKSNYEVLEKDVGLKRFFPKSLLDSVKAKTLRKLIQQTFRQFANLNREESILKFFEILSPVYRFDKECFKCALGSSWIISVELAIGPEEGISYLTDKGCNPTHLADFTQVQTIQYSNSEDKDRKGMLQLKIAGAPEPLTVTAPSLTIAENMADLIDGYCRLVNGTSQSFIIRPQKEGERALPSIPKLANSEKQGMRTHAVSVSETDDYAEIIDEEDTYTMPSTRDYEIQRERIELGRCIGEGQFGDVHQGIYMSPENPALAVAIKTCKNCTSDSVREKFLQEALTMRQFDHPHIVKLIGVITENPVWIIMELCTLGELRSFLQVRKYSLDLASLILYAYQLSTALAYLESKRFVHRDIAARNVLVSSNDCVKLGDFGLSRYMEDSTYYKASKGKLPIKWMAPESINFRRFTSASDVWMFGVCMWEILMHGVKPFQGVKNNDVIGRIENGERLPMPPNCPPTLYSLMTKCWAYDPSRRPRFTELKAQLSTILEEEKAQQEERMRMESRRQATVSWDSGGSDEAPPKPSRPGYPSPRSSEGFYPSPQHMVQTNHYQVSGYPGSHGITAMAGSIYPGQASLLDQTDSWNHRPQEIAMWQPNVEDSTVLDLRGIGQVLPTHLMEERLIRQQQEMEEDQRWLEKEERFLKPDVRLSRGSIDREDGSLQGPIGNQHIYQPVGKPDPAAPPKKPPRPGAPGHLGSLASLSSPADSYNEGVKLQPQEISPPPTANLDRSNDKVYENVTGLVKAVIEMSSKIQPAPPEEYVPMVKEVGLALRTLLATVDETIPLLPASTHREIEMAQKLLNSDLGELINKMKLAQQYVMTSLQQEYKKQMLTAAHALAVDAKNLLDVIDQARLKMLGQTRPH

IC50 [1]	IC50 [2]	SMILES
366 nM		CN(C)CC(O)COc1ccc(Nc2ncc(Br)c(Sc3ccccc3)n2)cc1 (centres unmarked) [Example 14, 5-Bromo-2-{4-[2-hydroxy-3-(N,N-dimethylamino)propoxy]anilino}-4-(phenylthio)pyrimidine]
	896 nM	COc1ccc(Oc2nc(Nc3ccc(OCC(O)CNC(C)C)cc3)ncc2F)cc1 (centres unmarked) [Example 13]
